{"source": "patent US20220193043A1", "about": "(CIPLA LIMITED, priority 2019, published 2022)", "key": {"[1]": {"protocol": "Bioanalysis was performed using a fit-for-purpose LC-MS/MS method for the quantification of tenofovir in rat plasma samples. The calibration curve (CC) for the method consisted of nine non-zero calibration standards along with a double blank and zero standard samples. Study samples were analyzed along with three sets of quality control samples (18 QC samples; low, medium and high QC samples).\nPlasma pharmacokinetic parameters were calculated using the non-compartmental analysis tool of Phoenix software (Version 6.3) and were determined from individual animals in each group. The peak plasma concentration (C), time to achieve peak plasma concentration (Tmax), the area under the plasma concentration-time curve (AUC0-t and AUCinf), AUC Extra (%), elimination half-life (T1/2), clearance (CL), volume of distribution Vd (L/kg) and Mean residence time (MRT) were calculated from intravenous group. The peak plasma concentration (C), time to achieve peak plasma concentration (T), AUC0-t and AUCinf, AUC Extra (%), Mean residence time (MRT) and absolute oral bioavailability (F) were calculated from the oral group."}, "[2]": {"system": "Staphylococcus aurues", "conditions": "cited from earlier work"}, "[3]": {"conditions": "cited from earlier work"}}, "data": [{"compound": "[2H]C1([2H])N=C(Nc2c(Cl)ccc3nsnc23)NC1([2H])[2H]", "note": "[Tizanidine D4]", "values": [{"measurement": "CLF_Obs(PO)", "setting": "[1]; rat plasma, 3 mg/kg PO", "result": "405 ± 189", "unit": "mL/min/kg"}]}, {"compound": "COc1ccc2cc3[n+](cc2c1OC)CCc1cc2c(cc1-3)OCO2", "note": "[berberine]", "values": [{"measurement": "antimicrobial activity", "setting": "[2]; berberine alone, in solution", "result": "very weak"}, {"measurement": "increase of antimicrobial activity of berberine", "setting": "[2]; in combination with 5-Methoxy hydnocarpin (5-MIC), against Staphylococcus aurues", "result": 200, "unit": "folds"}]}, {"compound": "Oc1ccc(C=Cc2cc(O)cc(O)c2)cc1", "note": "[resveratrol]", "values": [{"measurement": "water solubility", "setting": "[3]", "result": "< 50", "unit": "µg/mL"}]}, {"compound": "Tizanidine hydrochloride [Tizanidine HCl]", "values": [{"measurement": "AUCINF", "setting": "[1]; rat, in vivo, po, 3 mg/kg", "result": "111 ± 20", "unit": "ng·h/mL"}, {"measurement": "AUClast", "setting": "[1]; rat, in vivo, po, 3 mg/kg", "result": "106 ± 17.7", "unit": "ng·h/mL"}, {"measurement": "Vz/F_obs(PO)", "setting": "[1]; rat, in vivo, po, 3 mg/kg", "result": "71.9 ± 36.1", "unit": "L/kg"}]}]}
